Reference: US20240228927A1, “MICROFLUIDIC PLATFORM FOR DETECTION OF LIVER INJURY” (Javelin Biotech, Inc., priority 2023, published 2024)

System: liver
Test: not given
Details: BSEP / mitochondrial toxicity relative to the paired liver toxicant; cited from earlier work

Molecule	Comparator characteristic
O=C1CC2(CCCC2)CC(=O)N1CCCCN1CCN(c2ncccn2)CC1 [Buspirone]	Less BSEP

Same assay, conditions: in vivo; cited from earlier work

Molecule	DILI presentation (Less toxic comparator)	DILI presentation (Liver toxicant)	Mechanism of toxicity
O=c1[nH]c(=O)n(C2OC(CO)C(O)C2F)cc1I (stereo not shown) [FIRU]	No DILI	–	–
N[C@@H]1[C@H]2CN(c3nc4c(cc3F)c(=O)c(C(=O)O)cn4-c3ccc(F)cc3F)C[C@@H]12 [Trovafloxacin]	–	Acute liver	–
Mipomersen	–	ALT elevations	Lipid

Same assay, conditions: less toxic comparator of Table 1; cited from earlier work

Molecule	DILI presentation (Less toxic comparator)
COC(c1ccccc1)(c1ccccc1)[C@H](Oc1nc(C)cc(C)n1)C(=O)O [Ambrisentan]	Minimal
O=C1CC2(CCCC2)CC(=O)N1CCCCN1CCN(c2ncccn2)CC1 [Buspirone]	No/low
CCN(CC)C(=O)/C(C#N)=C/c1cc(O)c(O)c([N+](=O)[O-])c1 [Entacapone]	Low DILI
Cc1cc2c(s1)Nc1ccccc1N=C2N1CCN(C)CC1 [Olanzapine]	No DILI
CCc1ccc(CCOc2ccc(CC3SC(=O)NC3=O)cc2)nc1 (stereo not shown) [Pioglitazone]	Low DILI

Same assay, conditions: liver toxicant of Table 1; cited from earlier work

Molecule	DILI presentation (Liver toxicant)	Mechanism of toxicity
C=C[C@@H]1C[C@]1(NC(=O)[C@@H]1C[C@@H](Oc2ncc(OC)c3ccc(Cl)cc23)CN1C(=O)[C@@H](NC(=O)OC(C)(C)C)C(C)(C)C)C(=O)NS(=O)(=O)C1CC1 [Asunaprevir]	ALT elevations	–
CN1CCN(C2=Nc3cc(Cl)ccc3Nc3ccccc32)CC1 [Clozapine]	–	Reactive
O=c1[nH]c(=O)n([C@@H]2O[C@H](CO)[C@@H](O)[C@@H]2F)cc1I [Fialuridine]	Liver failure	Mitochondrial
CCc1nn(CCCN2CCN(c3cccc(Cl)c3)CC2)c(=O)n1CCOc1ccccc1 [Nefazodone]	Liver failure	Reactive
Cc1cc2c(cc1CC(=O)c1sccc1S(=O)(=O)Nc1onc(C)c1Cl)OCO2 [Sitaxsentan]	ALT elevations	Reactive
CC[C@H]1OC(=O)[C@H](C)C(=O)[C@H](C)[C@@H](O[C@@H]2O[C@H](C)C[C@H](N(C)C)[C@H]2O)[C@](C)(OC)C[C@@H](C)C(=O)[C@H](C)[C@H]2N(CCCCn3cnc(-c4cccnc4)c3)C(=O)O[C@]12C [Telithromycin]	ALT elevations	Bile acid
Cc1ccc(C(=O)c2cc(O)c(O)c([N+](=O)[O-])c2)cc1 [Tolcapone]	ALT elevations;	Reactive
Cc1c(C)c2c(c(C)c1O)CCC(C)(COc1ccc(CC3SC(=O)NC3=O)cc1)O2 (stereo not shown) [Troglitazone]	ALT, bilirubin	Reactive
N[C@@H]1[C@H]2CN(c3nc4c(cc3F)c(=O)c(C(=O)O)cn4-c3ccc(F)cc3F)C[C@@H]12 [Trovafloxacin]	–	Immune-
CC(c1cc2ccccc2s1)N(O)C(N)=O (stereo not shown) [Zileuton]	ALT elevations	Reactive

System: not given
Test: not given
Details: clinically observed, human plasma; cited from earlier work

Molecule	Cmax [µM]
O=C(O)Cc1ccccc1Nc1c(Cl)cccc1Cl [Diclofenac]	4 to 10

System: in vitro liver tissue
Test: mitochondrial stress test: on-chip oxygen consumption rate (OCR) of liver tissue
Assay type: cell-based, human
Details: oligomycin 1 μM, FCCP 0.3 μM, rotenone 1 μM with antimycin A 0.5 μM, 30 min each; matured tissue on chip
Source text: The microfluidic chip 100 and control system perform measurements of the oxygen consumption rate of in vitro liver tissue as a readout of mitochondrial function.
Oxygen sensing is achieved by combining a disposable oxygen sensor spot with an oxygen sensing meter. The meter provides an optical excitation signal to the sensor spot and measures the emitted light from the sensor spot. The light emitted by the sensor spot is influenced by a partial pressure of oxygen in fluid in contact with the sensor spot. Two sensor spots are placed in the primary flow path either side of the tissue culture area to measure the oxygen consumption of the tissue. The meters in the control module are placed such that they can measure the oxygen sensor values during normal operation.
The microfluidic chip 100 performs quantification of cellular respiration to assess mitochondrial function. […] To assess the sensitivity of the oxygen sensors 124a-b and on-chip OCR estimates, the microfluidic chip 100 performs a mitochondrial stress test. After cells are seeded on chips (e.g., 4 per treatment), tissue is matured (˜5-7 days), and basal OCR is established, oligomycin (1 μM & 30 min), which blocks proton translocation through complex V and represses ATP and OCR, are administered to the chips and OCR are assessed continuously. […] The oxygen sensors 124a-b read oxygen levels on the fluid path before and after the cell chamber. The inlet readout represents oxygenated media levels leaving the reoxygenation channel and the outlet readout reflects oxygen-depleted media due oxygen consumption of liver tissue. The continuous readouts are captured and recorded by the controller 114 of the microfluidic chip 100.

Molecule	OCR (oxygen consumption rate)
C=C(C)[C@H]1Cc2c(ccc3c2O[C@@H]2COc4cc(OC)c(OC)cc4[C@@H]2C3=O)O1 [Rotenone, rotenone]	complete reduction in OCR
CC[C@H]1/C=C/C=C/C[C@@H](C)[C@H](O)[C@@](C)(O)C(=O)[C@@H](C)[C@H](O)[C@@H](C)C(=O)[C@@H](C)[C@H](O)[C@@H](C)/C=C/C(=O)O[C@@H]2[C@H](C)[C@H](CC1)O[C@]1(CC[C@H](C)[C@H](C[C@@H](C)O)O1)[C@H]2C [oligomycin]	decreased OCR values, but non-zero values
FCCP	increases OCR to its maximum level
